Patent publication US8895522B2, “Composition and method for the prevention, treatment and/or alleviation of an inflammatory disease” (Index Pharmaceuticals AB, priority 2005, dated 2014)
Entries after “also recorded” stand apart in the source; their conditions may differ. In the oligonucleotide strings, read from the 5' end, every base follows the letter of its sugar. An asterisk marks phosphorothioate; unmarked linkages are phosphodiester. Other units and linkages are bracketed, terminal groups are in braces. A string of capitals states the bases alone. d = 2'-deoxy (DNA)

Experiments:
human PBMC [1] = test: Induction of IL-10 from healthy human PBMC (ELISpot); type: cell-based; details: PBMC from 5 healthy individuals, 48 hours
Protocol: (§1) Whole blood was obtained from healthy blood donors. PBMCs were prepared from 30 ml whole blood according to the following protocol:
(§2) 30 ml blood was transferred directly into heparinized tubes. All blood was transferred into one 50 ml Falcon tube and PBS added up to 50 ml. 15 ml Ficoll (17-1440-03, obtained from Amersham Bioscience AB, Uppsala) was then added into two falcon tubes (50 ml). The PBS-treated blood was then carefully added on the top of to Ficoll, 25 ml to each tube. The tubes were then centrifuged 25 min at 1700 RPM at RT (20° C.).
(§3) RPMIc medium was prepared under sterile conditions, using a 0.22 uM filter. (RPMIc denotes a RPMI 1640 culture medium (R0883, Sigma) supplemented with 5% heat-inactivated (56° C.,1 h) FCS 1.5 mM L-glutamine (G7513, Sigma), 100 U/ml penicillin and 100 ug/ml streptomycin, PEST (P0781, Sigma), hepes (H0887, Sigma), and gentamycin (G1272, Sigma)).
(§4) The interphase was carefully pipetted from the two tubes into 2x 50mi Falcon tubes. PBS was added up to 50 ml in each tube, and the tubes centrifuged for 10 min at 1700 RPM (4° C.).
(§5) The supernatant was discarded, and PBS added to 30 ml, whereupon the tubes were centrifuged at 10 min at 1500 RPM (4° C.). Again, the supernatant was discarded, 10 ml PBS added, and the pellets from the two falcon tubes pooled.
(§6) The cells were counted and left in PBS, then centrifuged at 1200 RPM, 10 min. Medium was then added to obtain the concentration of interest, and the cells counted (16 squares)×3. The mean value was calculated and multiplied with the dilution factor×10^4=cells/ml. Diluting the cells to 10 million/ml will result in 500.000 cells/50 ul medium, 6 million/ml will be 300.000/50 ul medium.
(§7) Elispot assays where performed according to the manufactures recommended guidelines (MabTech) and the plates were analyzed using an AID ELISpot reader system (Autoimmun Diagnostika GmbH, Strassberg, Germany).
Approximately 500,000 PBMC cells per well, derived from blood from healthy human donors, were incubated for 48 hours in the presence of the different oligonucleotides. Specifically, SEQ.ID.NO 1, SEQ.ID.NO 2, SEQ.ID.NO 6 and SEQ.ID.NO 8. Following incubation, the wells were developed according to the kit supplier's recommendations and the average number of positive cells producing IL-10 per well were counted using an AID ELISpot reader system, (Autoimmun Diagnostika GmbH, Strassberg, Germany).

human PBMC [2] = test: Induction of IFN-gamma from healthy human PBMC (ELISpot); type: cell-based; details: PBMC from 7 healthy individuals, 48 hours, FIG. 12
Protocol: as §1, §2
as §3, with “Sigma)). […]” for “Sigma)).”
The cells were counted and left in PBS, then centrifuged at 1200 RPM, 10 min. Medium was then added to obtain the concentration of interest, and the cells counted (16 squares)×3. The mean value was calculated and multiplied with the dilution factor×10^4=cells/ml. […]
Elispot assays where performed according to the manufactures recommended guidelines (MabTech) and the plates were analyzed using an AID ELISpot reader system (Autoimmun Diagnostika GmbH, Strassberg, Germany). […]

human PBMC [3] = test: Induction of IFN-alpha from healthy human PBMC (ELISpot); type: cell-based; details: PBMC from 10 healthy individuals, 48 hours
Protocol: as §1, §2, §3, §4, §5, §6, §7
For this assay again 500,000 PBMC cells per well, derived from healthy human blood were incubated for 48 hours in the presence of the different oligonucleotides. Specifically, SEQ.ID.NO 1, SEQ.ID.NO 2, and SEQ.ID.NO 8. Following incubation, the wells were developed according to the kit suppliers recommendations and the average number of positive cells producing IFN-alpha per well were determined using an AID ELISpot reader.

human PBMC [4] = test: IL-10 induction from healthy human PBMC by SEQ.ID.NO 1 after dexamethasone pre-incubation (ELISA); type: cell-based
Protocol: ELISA assays where performed according to the manufactures recommended guidelines (R&D systems). Plates were analyzed using AID ELISpot reader system (Autoimmun Diagnostika GmbH, Strassberg Germany).
For this assay again 500,000 PBMC cells per well, derived from blood from healthy human donors, were incubated for 12 hours in the presence of various concentrations of dexamethasone, after which, the cells were washed and fresh medium as added. The cells were then allowed to further incubate in the presence of either 25 uM or 100 uM of SEQ.ID.NO 1 for an additional 24 hours after which levels of IL-10 were measured using a commercial available IL-10 ELISA kit.

[5] = test system: steroid refractory/dependent IBD patients (ulcerative colitis and Crohn's disease); test: Human pilot proof of concept study in steroid resistant/dependent patients; type: in vivo; details: for Clinical response at week 1, responders: 5/7 patients, on concomitant steroid therapies
Protocol: A small pilot study was conducted in steroid refractory/dependent IBD patients with the following objectives.
Primary objective: To assess the safety issues regarding the use of the DNA based oligonucleotide denoted as SEQ.ID.NO.1 in ulcerative colitis and Crohn's disease patients.
Secondary objective: To explore the clinical efficacy as determined by endoscopic and clinical remission/improvement rates, histological improvement and changes in clinical laboratory parameters.
The study was placebo controlled; double blinded single dose and considered patients that were unresponsive to corticosteroids or corticosteroid dependent who where on concomitant steroid therapies.
Doses levels used were 3 mg and 30 mg given as a single rectal administration

[6] = test system: patients with mild to moderately active ulcerative colitis; test: Clinical phase II study in ulcerative colitis patients; type: in vivo, human; details: for Clinical response at Week 1: No, n (%) / Clinical response at Week 1: Yes, n (%): single rectal dose, ITT/Safety population; for clinical response rate at week 1, all receiving active drug: all four dose levels pooled (26/119)
Protocol: A large 150 patient study performed in ulcerative colitis patients who were neither on concomitant steroid therapies nor were described as being steroid refractory/dependent.
Primary objective: To evaluate the ability of each of the four dose levels (0.3 mg, 3 mg, 30 mg and 100 mg) of oligonucleotide SEQ.ID.NO.1 as an anti-inflammatory therapy to induce clinical remission in patients with mild to moderately active ulcerative colitis (UC), as compared with placebo.
Secondary objective: To assess the tolerability of single rectal doses of SEQ.ID.NO.1 oligonucleotide and to further evaluate the efficacy and safety of SEQ.ID.NO.1 oligonucleotide at four dose levels and to assess the pharmacokinetics of SEQ.ID.NO.1 oligonucleotide after rectal administration, as compared to placebo.

[7] = single rectal administration 3 mg or 30 mg

5′-G*G*A*ACAGTTCGTCCAT*G*G*C-3′ (DNA dG*dG*dA*dAdCdAdGdTdTdCdGdTdCdCdAdT*dG*dG*dC) [SEQ.ID.NO 1, (Hu p65)AS, CpG-containing ODN; * marks phosphorothioate linkage, others phosphodiester]
concentration from which IL-10 producing cells are induced (human PBMC [1]): around 5 uM | induction of IL-10 producing cells (human PBMC [1]; FIG. 11): clear potential to induce IL-10 producing cells | concentration at which induction of IFN-gamma becomes apparent (human PBMC [2]): around 25 uM | concentration at which induction of IFN-alpha starts / is apparent (human PBMC [3]): 1 µM | induction of IFN-alpha producing cells (human PBMC [3]; FIG. 13): clear inducing potential | IL-10 production (human PBMC [4]; 25 uM SEQ.ID.NO 1 for 24 hours after 12 hours prior incubation with dexamethasone): little production of IL-10 | IL-10 production (human PBMC [4]; 100 uM SEQ.ID.NO 1 for 24 hours after 12 hours prior incubation with dexamethasone (most apparent at 10^−10 M)): dramatic increase in the amount of IL-10 produced; also recorded: levels higher than either mono treatment alone | time to response of responding patients ([5]; after single rectal administration): within a week | patients still in remission and steroid free ([5]; of the 7 patients that received the drug): two from the 7 patients | serious adverse events [5, 7]: no serious adverse events were recorded | Clinical response at week 1, responders [5, 7]: 71% | Clinical response at week 1, responders ([5]; single rectal administration 3 mg or 30 mg, listed as Active): 71% | efficacy ([5]; single rectal administration, 3 mg and 30 mg dose groups): good efficacy in both dose groups | Clinical response at Week 1: No, n (%) ([6]; 0.3 mg (N = 31)): 23 (74.2) n (%) | Clinical response at Week 1: Yes, n (%) ([6]; 0.3 mg (N = 31)): 8 (25.8) n (%) | Clinical response at Week 1: No, n (%) ([6]; 3 mg (N = 29)): 23 (79.3) n (%) | Clinical response at Week 1: Yes, n (%) ([6]; 3 mg (N = 29)): 6 (20.7) n (%) | Clinical response at Week 1: No, n (%) ([6]; 30 mg (N = 30)): 23 (76.7) n (%) | Clinical response at Week 1: Yes, n (%) ([6]; 30 mg (N = 30)): 7 (23.3) n (%) | Clinical response at Week 1: No, n (%) ([6]; 100 mg (N = 29)): 24 (82.8) n (%) | Clinical response at Week 1: Yes, n (%) ([6]; 100 mg (N = 29)): 5 (17.2) n (%) | clinical response rate at week 1, all receiving active drug [6]: 22% | clinical response rate at week 1, all receiving active drug ([6]; listed as Active): 22% | induction of clinical, endoscopic or histopathological remissions or responses ([6]; one single dose from 0.3 to 100 mg, over a 12 week period): could not confirm | safety profile ([6]; single rectal doses 0.3 to 100 mg): good safety profile
